This is an account of results in US6410792B1, “Amide derivatives and methods for using the same as selective neuropeptide Y receptor antagonists” (Bayer Corporation, priority 1997, dated 2002).

The structures appear in SMILES notation. pIC50: −log10 of the molar value.

For this test, the target named is T1, Human NPY5 receptor (Homo sapiens, UniProt Q15761).
T1 sequence (Q15761 1-445): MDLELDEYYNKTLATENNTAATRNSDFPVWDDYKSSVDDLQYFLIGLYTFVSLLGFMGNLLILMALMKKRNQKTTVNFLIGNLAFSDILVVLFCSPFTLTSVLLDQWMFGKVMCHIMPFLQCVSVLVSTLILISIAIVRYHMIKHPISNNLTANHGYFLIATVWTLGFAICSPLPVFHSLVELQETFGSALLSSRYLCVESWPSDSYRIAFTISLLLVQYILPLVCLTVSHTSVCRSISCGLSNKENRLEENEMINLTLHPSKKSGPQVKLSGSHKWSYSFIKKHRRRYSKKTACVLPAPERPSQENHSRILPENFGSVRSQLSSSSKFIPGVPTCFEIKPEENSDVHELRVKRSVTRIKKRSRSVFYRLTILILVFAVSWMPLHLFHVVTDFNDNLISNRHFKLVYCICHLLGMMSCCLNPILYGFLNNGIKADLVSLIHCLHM
Nature of the test: Human NPY5 receptor binding assay ([125I]PYY, membrane protein). The settings on record: [125I]PYY binding, read-out: hNPY5 IC50. Here is the method:
C. Human and Rat NPY5 Receptor Binding Assays
Binding assays are performed on GF/C Millipore 96well plates pretreated with 0.02% polyethylenimine. The binding buffer is 25 mM Tris, 120 mM NaCl, 5 mM KCl, 1.2 mM KH2PO4, 2.5 mM CaCl2, 1.2 mM MgSO4, 0.1% BSA and 0.5 mg/ml bacitracin, pH 7.4. Samples consist of membrane protein, 75-100 pM [125I]PYY (porcine, NEN-DuPont) and drug dilution. Nonspecific binding is defined by 1 μM PYY. After a 2 hour incubation at room temperature with constant mixing, the samples are aspirated on a vacuum manifold, and rinsed with ice-cold binding buffer. The amount of radioactivity in each well is quantitated with either gamma counting or liquid scintillation.
What is called pIC50 is the IC50 on a negative log10 scale, so that one unit is a factor of ten. `COc1ccccc1CNCC(=O)Nc1ccc(C2CCCCC2)cc1` [Compound 149, N-(4-Cyclohexyl-phenyl)-2-(2-methoxy-benzylamino)-acetamide]: the negative logarithm of the IC50 (pIC50) is less than 5.30.

With `O=C(CNCCN1CCNCC1)Nc1ccc(C2CCCCC2)cc1` [Compound 146, N-(4-Cyclohexyl-phenyl)-2-(2-piperazin-1-yl-ethylamino)-acetamide], the pIC50 was less than 5.30.

For the compound `O=C(CNCc1ccc2c(c1)OCO2)Nc1ccc(C(=O)c2ccccc2)cc1` [Compound 158, 2-[(Benzo[1,3]dioxol-5-ylmethyl)-amino]-N-(4-benzoyl-phenyl)-acetamide], the pIC50 was less than 5.30.

Consider `O=C(CNCCc1c[nH]c2ccccc12)Nc1ccc(C(=O)c2ccccc2)cc1` [Compound 153, N-(4-Benzoyl-phenyl)-2-[2-(1H-indo-3-yl)-ethylamino]-acetamide], for which the negative-log IC50 (pIC50) is less than 5.30.

As for `O=C(CNC(c1ccccc1)c1ccccc1)Nc1ccc(C2CCCCC2)cc1` [Compound 131, 2-(Benzhydryl-amino)-N-(4-cyclohexyl-phenyl)-acetamide], the pIC50 is less than 5.30.

For the compound `COc1ccccc1CNCC(=O)Nc1ccc(C(=O)c2ccccc2)cc1` [Compound 159, N-(4-Benzoyl-phenyl)-2-(2-methoxy-benzylamino)-acetamide], the pIC50 was less than 5.30.

With `O=C(CNCCCc1ccccc1)Nc1ccc(C(=O)c2ccccc2)cc1` [Compound 151, N-(4-Benzoyl-phenyl)-2-(3-phenyl-propylamino)-acetamide], the pIC50 was less than 5.30.

For `O=C(CN1C[C@H](O)C[C@H]1C(=O)O)Nc1ccc(C2CCCCC2)cc1` [Compound 12, (4R,2S)-1-[(4-Cyclohexyl-phenylcarbamoyl)-methyl]-4-hydroxy-pyrrolidine-2-carboxylic acid], the pIC50 is 5.05.

With `NCCNCC1CCN(CC(=O)Nc2ccc(C(=O)c3ccccc3)cc2)CC1` [Compound 134, 2-{4-[(2-Amino-ethylamino)-methyl]-piperidin-1-yl}-N-(4-benzoyl-phenyl)-acetamide], the pIC50 is less than 5.30.

With `CCCCCCCCCCNCC(=O)Nc1ccc(C2CCCCC2)cc1` [Compound 140, N-(4-Cyclohexyl-phenyl)-2-decylamino-acetamide], the pIC50 was less than 5.30.

As to `O=C(CNCCNc1ccc([N+](=O)[O-])cn1)Nc1ccc(C2CCCCC2)cc1` [Compound 147, N-(4-Cyclohexyl-phenyl)-2-[2-(5-nitro-pyridin-2-ylamino)-ethylamino]-acetamide], the pIC50 was less than 5.30.

In the case of `O=C(CNCCc1c[nH]cn1)Nc1ccc(C(=O)c2ccccc2)cc1` [Compound 152, N-(4-Benzoyl-phenyl)-2-[2-(1H-imidazol-4-yl)-ethylamino]-acetamide], the pIC50 was less than 5.30.

As to `O=C(CNCCN1CCNCC1)Nc1ccc(C(=O)c2ccccc2)cc1` [Compound 156, N-(4-Benzoyl-phenyl)-2-(2-piperazin-1-yl-ethylamino)-acetamide], the pIC50 is less than 5.30.

In the case of `CN(C)C1(C(N)=O)CCN(CC(=O)Nc2ccc(C3CCCCC3)cc2)CC1` [Compound 65, 1-[(4-Cyclohexyl-phenylcarbamoyl)-methyl]-4-dimethylamino-piperidine-4-carboxylic acid amide], the pIC50 is 6.16.

For `O=C(CNCCc1c[nH]c2ccccc12)Nc1ccc(C2CCCCC2)cc1` [Compound 143, N-(4-Cyclohexyl-phenyl)-2-[2-(1H-indol-3-yl)-ethylamino]-acetamide], the pIC50 was less than 5.30.

Turning to `Cn1cccc1CCNCC(=O)Nc1ccc(C(=O)c2ccccc2)cc1` [Compound 139, N-(4-Benzoyl-phenyl)-2-[2-(1-methyl-1H-pyrrol-2-yl)-ethylamino]-acetamide], the pIC50 is less than 5.30.

For the compound `CCCCCCCCCCNCC(=O)Nc1ccc(C(=O)c2ccccc2)cc1` [Compound 150, N-(4-Benzoyl-phenyl)-2-decylamino-acetamide], the pIC50 was less than 5.30.

Regarding `COc1ccc(CCNCC(=O)Nc2ccc(C(=O)c3ccccc3)cc2)cc1` [Compound 155], the pIC50 is less than 5.30.

Regarding `COc1ccc2[nH]cc(CCNCC(=O)Nc3ccc(C4CCCCC4)cc3)c2c1` [Compound 144, N-(4-Cyclohexyl-phenyl)-2-[2-(5-methoxy-1H-indol-3-yl)-ethylamino]-acetamide], the pIC50 is less than 5.30.

Turning to `O=C(CNCCCc1ccccc1)Nc1ccc(C2CCCCC2)cc1` [Compound 141, N-(4-Cyclohexyl-phenyl)-2-(3-phenyl-propylamino)-acetamide], the pIC50 was less than 5.30.

As to `O=C(CN1CCCC1)Nc1ccc(C(=O)c2ccccc2)cc1` [Compound 136, N-(4-Benzoyl-phenyl)-2-pyrrolidin-1-yl-acetamide], the pIC50 is less than 5.30.

Turning to `O=C(CNCCNc1ccc([N+](=O)[O-])cn1)Nc1ccc(C(=O)c2ccccc2)cc1` [Compound 157, N-(4-Benzoyl-phenyl)-2-[2-(5-nitro-pyridin-2-ylamino)-ethylamino]-acetamide], the pIC50 is less than 5.30.

For the compound `COc1ccc(CCNCC(=O)Nc2ccc(C3CCCCC3)cc2)cc1` [Compound 145, N-(4-Cyclohexyl-phenyl)-2-[2-(4-methoxy-phenyl)-ethylamino]-acetamide], the pIC50 is less than 5.30.

On to `O=C(CNCCc1c[nH]cn1)Nc1ccc(C2CCCCC2)cc1` [Compound 142, N-(4-Cyclohexyl-phenyl)-2-[2-(1H-imidazol-4-yl)-ethylamino]-acetamide], for which the pIC50 is less than 5.30.

With `O=C(CNC(c1ccccc1)c1ccccc1)Nc1ccc(C(=O)c2ccccc2)cc1` [Compound 138, 2-(Benzhydryl-amino)-N-(4-benzoyl-phenyl)-acetamide], the pIC50 is less than 5.30.

In the case of `O=C(CNc1nc[nH]n1)Nc1ccc(C(=O)c2ccccc2)cc1` [Compound 137, N-(4-Benzoyl-phenyl)-2-(1H-[1,2,4]triazol-3-ylamino)-acetamide], the pIC50 was less than 5.30.
